Test results as given in patent US5910479A, “Method for the treatment of Streptococcus pneumoniae infection” (priority 1996, dated 1999).
Values after ≈ are worked out from the molar mass of the structure shown.

Columns and labels:
[1] = test system: Streptococcus pneumoniae Felton; assay: Mouse i.p. infection model (septicemia), survival; assay type: in vivo; conditions: mice; for Survivors (%) / Survivors/total: twice
Protocol: Mouse i.p. infection model. Staphylococcus aureus Smith was grown in veal infusion broth and each mouse was infected intraperitoneally with 10^6 colony-forming units (CFU), diluted in broth containing 5% (w/v) Difco bacteriological mucin. Streptococcus pneumoniae Felton strain was grown in Difco Brain Heart Infusion broth (BHI) and each mouse was infected intraperitoneally with 10^3 CFU, diluted in BHI. Mice were divided into groups of 5. […] Other groups of mice received different dosages of nisin. Nisin was administered either intravenously (via the tail vein in. 0.1 ml of 5% dextrose for injection) or subcutaneously (in 0.2 ml). Two injections were given to each mouse, the first within 10 minutes after infection and the second after 5 hours. […] Different dosages of vancomycin or penicillin were administered i.v. in 0.1 ml of 5% glucose for injection.

S. pneumoniae = conditions: strain of S. pneumoniae used; reported by Goldstein et al.; cited from earlier work

CC1(C)S[C@@H]2[C@H](NC(=O)Cc3ccccc3)C(=O)N2[C@H]1C(=O)O [penicillin]
Efficacy compared with the other agents (in words) ([1]; i.v.): less efficacious than nisin | Survivors (%) ([1]; i.v., 0.5 mg/kg/dose): 0% | Survivors/total ([1]; i.v., 0.5 mg/kg/dose): 0/5 | Survivors (%) ([1]; i.v., 1 mg/kg/dose): 20% | Survivors/total ([1]; i.v., 1 mg/kg/dose): 1/5 | Survivors (%) ([1]; i.v., 2 mg/kg/dose): 20% | Survivors/total ([1]; i.v., 2 mg/kg/dose): 1/5 | Survivors (%) ([1]; i.v., 4 mg/kg/dose): 60% | Survivors/total ([1]; i.v., 4 mg/kg/dose): 3/5 | Survivors (%) ([1]; i.v., 8 mg/kg/dose): 20% | Survivors/total ([1]; i.v., 8 mg/kg/dose): 1/5 | Survivors (%) ([1]; i.v., 16 mg/kg/dose): 80% | Survivors/total ([1]; i.v., 16 mg/kg/dose): 4/5 | MIC (S. pneumoniae): 0.016 µg/mL (≈ 0.0478 µM)

CN[C@H](CC(C)C)C(=O)N[C@H]1C(=O)N[C@@H](CC(N)=O)C(=O)N[C@H]2C(=O)N[C@H]3C(=O)N[C@H](C(=O)N[C@H](C(=O)O)c4cc(O)cc(O)c4-c4cc3ccc4O)[C@H](O)c3ccc(c(Cl)c3)Oc3cc2cc(c3O[C@@H]2O[C@H](CO)[C@@H](O)[C@H](O)[C@H]2O[C@H]2C[C@](C)(N)[C@H](O)[C@H](C)O2)Oc2ccc(cc2Cl)[C@H]1O [vancomycin]
Efficacy compared with the other agents (in words) ([1]; i.v.): less efficacious than nisin | Survivors (%) ([1]; i.v., 1 mg/kg/dose): 40% | Survivors/total ([1]; i.v., 1 mg/kg/dose): 2/5 | Survivors (%) ([1]; i.v., 2 mg/kg/dose): 60% | Survivors/total ([1]; i.v., 2 mg/kg/dose): 3/5 | Survivors (%) ([1]; i.v., 4 mg/kg/dose): 80% | Survivors/total ([1]; i.v., 4 mg/kg/dose): 4/5 | Survivors (%) ([1]; i.v., 8 mg/kg/dose): 100% | Survivors/total ([1]; i.v., 8 mg/kg/dose): 5/5 | Survivors (%) ([1]; i.v., 16 mg/kg/dose): 100% | Survivors/total ([1]; i.v., 16 mg/kg/dose): 5/5 | Survivors (%) ([1]; i.v., 32 mg/kg/dose): 100% | Survivors/total ([1]; i.v., 32 mg/kg/dose): 5/5 | Survivors (%) ([1]; s.c., 2 mg/kg/dose): 60% | Survivors/total ([1]; s.c., 2 mg/kg/dose): 3/5 | Survivors (%) ([1]; s.c., 4 mg/kg/dose): 60% | Survivors/total ([1]; s.c., 4 mg/kg/dose): 3/5
